Data: patent USRE48461E1, “Modulation of androgen receptor expression” (Ionis Pharmaceuticals, Inc., priority 2012, dated 2021)

Tests used:
Assay type in all cases: cell-based, human
TMPRSS2 mRNA [1] = assay: TMPRSS2 expression in LNCaP cells (complete, CSS+DHT medium); settings: for Percent inhibition of TMPRSS2 expression in LNCaP cells cultured in CSS + DHT medium: CSS + DHT (1 nM) medium, 48 hrs; for Percent inhibition of TMPRSS2 expression in LNCaP cells cultured in complete medium: 48 hours
Procedure: (§1) Cells were plated at 1,000 cells per well. […] ISIS 549148 was included as a negative control. […] After an incubation period of 48 hours, RNA levels of AR, PSA and TMPRSS2 were measured.
(§2) Cells were plated at 2,000 cells per well and cultured in phenol red-free RPMI supplemented with 5% charcoal stripped serum (Gibco) media for 16 hours. […] ISIS 549148 was included as a negative control. […] After an incubation period of 4 hrs, DHT was added to the medium to a final concentration of 1 nM as indicated. RNAs were collected 48 hrs later and levels of AR, PSA and TMPRSS2 were measured. In the absence of DHT, AR expression in LNCaP cells was 95%, PSA expression was 7% and TMPRSS2 expression was 24% compared to the untreated control.

PSA mRNA [2] = assay: PSA expression in LNCaP cells (complete, CSS+DHT medium); settings: for Percent inhibition of PSA expression in LNCaP cells cultured in CSS + DHT medium: CSS + DHT (1 nM) medium, 48 hrs; for Percent inhibition of PSA expression in LNCaP cells cultured in complete medium: 48 hours
Procedure: as §1, §2

TMPRSS2 mRNA [3] = assay: TMPRSS2 expression in 22RV1 cells; settings: 48 hrs
Procedure: (§3) Cells were plated at 1,000 cells per well. […] After an incubation period of 48 hrs, RNA levels of full length AR, the V7 variant, PSA and TMPRSS2 were measured.
(§4) After an incubation period of 48 hrs, RNA levels of full length AR, the V7 variant, PSA and TMPRSS2 were measured.
(§5) Cells were plated at 2,000 cells per well and cultured in CSS media for 16 hours. […] After 4 hrs, 1 nM DHT was added. […] After an incubation period of 48 hrs, RNA levels of AR, AR V7 variant, PSA and TMPRSS2 were measured.

PSA mRNA [4] = assay: PSA expression in 22RV1 cells; settings: 48 hrs
Procedure: as §3, §4, §5

C4-2B cells = assay: C4-2B cell proliferation (complete or CSS+DHT medium; Example 30); settings: 5 days; for Proliferation (% untreated control): C4-2B cells
Procedure: After a treatment period of 5 days in complete medium or CSS+1 nM DHT medium, the proliferative capacity of the cancer cells was measured with using CellTiter 96® AQueous One or CellTiter-Glo® Solution Cell Proliferation kit (Promega), following the manufacturer's instructions.

C4-2 cells = assay: C4-2 cell proliferation (complete or CSS+DHT medium); settings: 5 days; for Proliferation (% untreated control): C4-2 cells
Procedure: After a treatment period of 5 days in complete medium or CSS+1 nM DHT medium, the proliferative capacity of the cancer cells was measured with using CellTiter 96® AQueous One Solution or CellTiter-Glo® Cell Proliferation kit (Promega), following the manufacturer's instructions. […] The proliferative capacity of cells cultured in CSS medium without DHT is 17% of untreated control levels.

[5] = complete medium or CSS+1 nM DHT

For CNC(=O)c1ccc(N2C(=S)N(c3ccc(C#N)c(C(F)(F)F)c3)C(=O)C2(C)C)cc1F [MDV3100, 4-(3-(4-cyano-3-(trifluoromethyl)phenyl)-5,5-dimethyl-4-oxo-2-thioxoimidazolidin-1-yl)-2-fluoro-N-methylbenzamide, reference compound], the “Percent inhibition of TMPRSS2 expression in LNCaP cells cultured in CSS + DHT medium” value (TMPRSS2 mRNA [1]; 0.04 μM) was 8%, the “Percent inhibition of TMPRSS2 expression in LNCaP cells cultured in CSS + DHT medium” value (TMPRSS2 mRNA [1]; 0.2 μM) was 24% and the “Percent inhibition of TMPRSS2 expression in LNCaP cells cultured in CSS + DHT medium” value (TMPRSS2 mRNA [1]; 1 μM) was 60%. The “Percent inhibition of TMPRSS2 expression in LNCaP cells cultured in CSS + DHT medium” value (TMPRSS2 mRNA [1]; 5.0 μM) was 69%, the “Percent inhibition of TMPRSS2 expression in LNCaP cells cultured in complete medium” value (TMPRSS2 mRNA [1]; 0.04 μM) was 0% and the “Percent inhibition of TMPRSS2 expression in LNCaP cells cultured in complete medium” value (TMPRSS2 mRNA [1]; 0.2 μM) was 0%. For the same molecule, the “Percent inhibition of TMPRSS2 expression in LNCaP cells cultured in complete medium” value (TMPRSS2 mRNA [1]; 1 μM) was 34%, the “Percent inhibition of TMPRSS2 expression in LNCaP cells cultured in complete medium” value (TMPRSS2 mRNA [1]; 5.0 μM) was 39% and the “Percent inhibition of PSA expression in LNCaP cells cultured in CSS + DHT medium” value (PSA mRNA [2]; 0.04 μM) was 15%. The “Percent inhibition of PSA expression in LNCaP cells cultured in CSS + DHT medium” value (PSA mRNA [2]; 0.2 μM) was 38%, the “Percent inhibition of PSA expression in LNCaP cells cultured in CSS + DHT medium” value (PSA mRNA [2]; 1 μM) was 81% and the “Percent inhibition of PSA expression in LNCaP cells cultured in CSS + DHT medium” value (PSA mRNA [2]; 5.0 μM) was 82%. The “Percent inhibition of PSA expression in LNCaP cells cultured in complete medium” value (PSA mRNA [2]; 0.04 μM) was 0%, the “Percent inhibition of PSA expression in LNCaP cells cultured in complete medium” value (PSA mRNA [2]; 0.2 μM) was 35% and the “Percent inhibition of PSA expression in LNCaP cells cultured in complete medium” value (PSA mRNA [2]; 1 μM) was 84%. For the same molecule, the “Percent inhibition of PSA expression in LNCaP cells cultured in complete medium” value (PSA mRNA [2]; 5.0 μM) was 87%, the “Percent of gene expression, TMPRSS2” value (TMPRSS2 mRNA [3]; CSS + DHT medium, 0.04 μM) was 17% and the “Percent of gene expression, TMPRSS2” value (TMPRSS2 mRNA [3]; CSS + DHT medium, 0.2 μM) was 9%. For the same molecule, the “Percent of gene expression, TMPRSS2” value (TMPRSS2 mRNA [3]; CSS + DHT medium, 1.0 μM) was 26%, the “Percent of gene expression, TMPRSS2” value (TMPRSS2 mRNA [3]; CSS + DHT medium, 5.0 μM) was 18% and the “Percent of gene expression, TMPRSS2” value (TMPRSS2 mRNA [3]; complete medium, 0.04 μM) was 101%. For the same molecule, the “Percent of gene expression, TMPRSS2” value (TMPRSS2 mRNA [3]; complete medium, 0.2 μM) was 80%, the “Percent of gene expression, TMPRSS2” value (TMPRSS2 mRNA [3]; complete medium, 1.0 μM) was 82% and the “Percent of gene expression, TMPRSS2” value (TMPRSS2 mRNA [3]; complete medium, 5.0 μM) was 93%. For the same molecule, the “Percent of gene expression, PSA” value (PSA mRNA [4]; CSS + DHT medium, 0.04 μM) was 15%, the “Percent of gene expression, PSA” value (PSA mRNA [4]; CSS + DHT medium, 0.2 μM) was 19% and the “Percent of gene expression, PSA” value (PSA mRNA [4]; CSS + DHT medium, 1.0 μM) was 18%. The “Percent of gene expression, PSA” value (PSA mRNA [4]; CSS + DHT medium, 5.0 μM) was 16%, the “Percent of gene expression, PSA” value (PSA mRNA [4]; complete medium, 0.04 μM) was 83% and the “Percent of gene expression, PSA” value (PSA mRNA [4]; complete medium, 0.2 μM) was 70%. For the same molecule, the “Percent of gene expression, PSA” value (PSA mRNA [4]; complete medium, 1.0 μM) was 71%, the “Percent of gene expression, PSA” value (PSA mRNA [4]; complete medium, 5.0 μM) was 86% and the “Proliferation (% untreated control)” value (C4-2B cells; CSS + DHT medium, 0.04 μM) was 125 % untreated control. The “Proliferation (% untreated control)” value (C4-2B cells; CSS + DHT medium, 0.2 μM) was 100 % untreated control, the “Proliferation (% untreated control)” value (C4-2B cells; CSS + DHT medium, 1 μM) was 83 % untreated control and the “Proliferation (% untreated control)” value (C4-2B cells; CSS + DHT medium, 5.0 μM) was 17 % untreated control. The “Proliferation (% untreated control)” value (C4-2B cells; complete medium, 0.04 μM) was 131 % untreated control, the “Proliferation (% untreated control)” value (C4-2B cells; complete medium, 0.2 μM) was 105 % untreated control and the “Proliferation (% untreated control)” value (C4-2B cells; complete medium, 1 μM) was 72 % untreated control. The “Proliferation (% untreated control)” value (C4-2B cells; complete medium, 5.0 μM) was 60 % untreated control, the “proliferation of C4-2B cells” value (C4-2B cells; [5]) was “reduced proliferation of the cells in a dose dependent compared to the control” and the “Proliferation (% untreated control)” value (C4-2 cells; CSS + DHT medium, 0.04 μM) was 122 % untreated control. For the same molecule, the “Proliferation (% untreated control)” value (C4-2 cells; CSS + DHT medium, 0.2 μM) was 124 % untreated control, the “Proliferation (% untreated control)” value (C4-2 cells; CSS + DHT medium, 1 μM) was 87 % untreated control and the “Proliferation (% untreated control)” value (C4-2 cells; CSS + DHT medium, 5.0 μM) was 22 % untreated control. The “Proliferation (% untreated control)” value (C4-2 cells; complete medium, 0.04 μM) was 105 % untreated control, the “Proliferation (% untreated control)” value (C4-2 cells; complete medium, 0.2 μM) was 108 % untreated control and the “Proliferation (% untreated control)” value (C4-2 cells; complete medium, 1 μM) was 71 % untreated control. For the same molecule, the “Proliferation (% untreated control)” value (C4-2 cells; complete medium, 5.0 μM) was 67 % untreated control and the “proliferation of C4-2 cells” value (C4-2 cells; [5]) was “reduced proliferation of the cells in a dose dependent manner compared to the control”.
